# According to patent publication US11345681B1, “Inhibitors of fibroblast growth factor receptor kinases” (Kinnate Biopharma Inc., priority 2020, dated 2022):
# Biological target: Wild type FGFR2 (Homo sapiens (Human), UniProt P21802)
# Experiment: FGFR2 kinase assay (fluorescence-based microfluidic mobility shift assay)
# Format: biochemical
# Conditions: not given
# Wild type FGFR2, sequence (P21802 22-821): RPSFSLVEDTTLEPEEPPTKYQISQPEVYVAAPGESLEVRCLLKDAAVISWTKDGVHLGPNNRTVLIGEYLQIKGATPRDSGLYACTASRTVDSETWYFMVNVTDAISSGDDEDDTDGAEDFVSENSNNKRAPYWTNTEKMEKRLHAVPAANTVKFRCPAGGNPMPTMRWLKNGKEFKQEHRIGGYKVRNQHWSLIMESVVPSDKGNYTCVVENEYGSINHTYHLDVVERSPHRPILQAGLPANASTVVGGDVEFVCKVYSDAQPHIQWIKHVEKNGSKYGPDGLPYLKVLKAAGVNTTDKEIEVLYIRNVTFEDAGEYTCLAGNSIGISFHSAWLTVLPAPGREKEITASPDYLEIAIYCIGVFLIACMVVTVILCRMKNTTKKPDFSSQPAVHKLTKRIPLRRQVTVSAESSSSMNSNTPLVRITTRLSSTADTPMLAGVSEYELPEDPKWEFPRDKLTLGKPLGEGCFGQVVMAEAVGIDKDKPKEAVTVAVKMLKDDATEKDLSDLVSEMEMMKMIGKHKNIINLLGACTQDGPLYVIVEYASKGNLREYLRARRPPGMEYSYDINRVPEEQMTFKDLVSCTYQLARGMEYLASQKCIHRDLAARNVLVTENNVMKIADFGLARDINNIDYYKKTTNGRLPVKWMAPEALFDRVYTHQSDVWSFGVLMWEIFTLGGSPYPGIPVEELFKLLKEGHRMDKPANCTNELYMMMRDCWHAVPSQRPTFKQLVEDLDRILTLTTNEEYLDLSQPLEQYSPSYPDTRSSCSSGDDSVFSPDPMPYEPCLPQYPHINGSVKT
row,Compound,IC50 [nM]
1,"C=CC(=O)N1C[C@@H](n2nc(C#Cc3cc4nccc(C)c4cc3F)c(C(N)=O)c2NC)C[C@@H]1COC [Example 274, 3-[2-(6-Fluoro-4-methylquinolin-7-yl)ethynyl]-1-[(3S,5R)-5-(methoxymethyl)-1-(prop-2-enoyl)pyrrolidin-3-yl]-5-(methylamino)pyrazole-4-carboxamide]",< 100
2,"C=CC(=O)N1C[C@@H](n2nc(C#Cc3cc4nccc(C)c4cc3Cl)c(C(N)=O)c2NC)C[C@@H]1COC [Example 281, 3-[2-(6-chloro-4-methylquinolin-7-yl)ethynyl]-1-[(3S,5R)-5-(methoxymethyl)-1-(prop-2-enoyl)pyrrolidin-3-yl]-5-(methylamino)pyrazole-4-carboxamide]",< 100

# Same assay, conditions: wild type FGFR2 0.06 nM, 100 μM ATP, 80 minutes at room temperature; class symbols
row,Compound,IC50 [nM]
1,"C=CC(=O)N1C[C@@H](n2nc(C#Cc3cc4nc(C)n(C5CC5)c4cc3Cl)c(C(N)=O)c2NCCO)C[C@@H]1COC [Example 253, 1-((3S,5R)-1-Acryloyl-5-(methoxymethyl)pyrrolidin-3-yl)-3-((6-chloro-1-cyclopropyl-2-methyl-1H-benzo[d]imidazol-5-yl)ethynyl)-5-((2-hydroxyethyl)amino)-1H-pyrazole-4-carboxamide]",≤ 100
2,"C=CC(=O)N1C[C@@H](n2nc(C#Cc3cc4c(cc3F)OCO4)c(C(N)=O)c2NC)C[C@@H]1COC [Example 254, 3-[2-(6-Fluoro-2H-1,3-benzodioxol-5-yl)ethynyl]-1-[(3S,5R)-5-(methoxymethyl)-1-(prop-2-enoyl)pyrrolidin-3-yl]-5-(methylamino)pyrazole-4-carboxamide]",≤ 100
3,"C=CC(=O)N1C[C@@H](n2nc(C#Cc3cc4ncc(Cl)cc4cc3F)c(C(N)=O)c2NC)C[C@@H]1COC [Example 256, 3-[2-(3-Chloro-6-fluoroquinolin-7-yl)ethynyl]-1-[(3S,5R)-5-(methoxymethyl)-1-(prop-2-enoyl)pyrrolidin-3-yl]-5-(methylamino)pyrazole-4-carboxamide]",≤ 100
4,"C=CC(=O)N1C[C@@H](n2nc(C#Cc3cc4ncc(C)n4cc3F)c(C(N)=O)c2NC)C[C@@H]1COC [Example 257, 1-((3S,5R)-1-Acryloyl-5-(methoxymethyl)pyrrolidin-3-yl)-3-((6-fluoro-3 methylimidazo[1,2-a]pyridin-7-yl)ethynyl)-5-(methylamino)-1H-pyrazole-4-carboxamide]",≤ 100
5,"C=CC(=O)N1C[C@@H](n2nc(C#Cc3cc4nc5n(c4cc3F)CCC5)c(C(N)=O)c2NC)C[C@@H]1COC [Example 260, 1-((3S,5R)-1-acryloyl-5-(methoxymethyl)pyrrolidin-3-yl)-3-((7-fluoro-2,3-dihydro-1H-benzo[d]pyrrolo[1,2-a]imidazol-6-yl)ethynyl)-5-(methylamino)-1H-pyrazole-4-carboxamide]",≤ 100
6,"C=CC(=O)N1C[C@@H](n2nc(C#Cc3cc4ncc(C5CC5)n4cc3Cl)c(C(N)=O)c2NC)C[C@@H]1COC [Example 261, 3-(2-{6-Chloro-3-cyclopropylimidazo[1,2-a]pyridin-7-yl}ethynyl)-1-[(3S,5R)-5-(methoxymethyl)-1-(prop-2-enoyl)pyrrolidin-3-yl]-5-(methylamino)pyrazole-4-carboxamide]",≤ 100
7,"C=CC(=O)N1C[C@@H](n2nc(C#Cc3cc4ncc(C#N)n4cc3F)c(C(N)=O)c2NC)C[C@@H]1COC [Example 262, 3-(2-{3-Cyano-6-fluoroimidazo[1,2-a]pyridin-7-yl}ethynyl)-1-[(3S,5R)-5-(methoxymethyl)-1-(prop-2-enoyl)pyrrolidin-3-yl]-5-(methylamino)pyrazole-4-carboxamide]",≤ 100
8,"C=CC(=O)N1C[C@@H](n2nc(C#Cc3ccc4c(C#N)cnn4c3)c(C(N)=O)c2NC)C[C@@H]1COC [Example 263, 3-(2-{3-Cyanopyrazolo[1,5-a]pyridin-6-yl}ethynyl)-1-[(3S,5R)-5-(methoxymethyl)-1-(prop-2-enoyl)pyrrolidin-3-yl]-5-(methylamino)pyrazole-4-carboxamide]",≤ 100
9,"C=CC(=O)N1C[C@@H](n2nc(C#Cc3cc4ncc(F)cc4cc3F)c(C(N)=O)c2NC)C[C@@H]1COC [Example 264, 3-[2-(3,6-Difluoroquinolin-7-yl)ethynyl]-1-[(3S,5R)-5-(methoxymethyl)-1-(prop-2-enoyl)pyrrolidin-3-yl]-5-(methylamino)pyrazole-4-carboxamide]",≤ 100
10,"C=CC(=O)N1C[C@@H](n2nc(C#Cc3cc4nncc(C)c4cc3F)c(C(N)=O)c2NC)C[C@@H]1COC [Example 266, 1-((3S,5R)-1-Acryloyl-5-(methoxymethyl)pyrrolidin-3-yl)-3-((6-fluoro-4-methylcinnolin-7-yl)ethynyl)-5-(methylamino)-1H-pyrazole-4-carboxamide]",≤ 100
11,"C=CC(=O)N1C[C@@H](n2nc(C#Cc3cc4ncc(C(F)F)cc4cc3F)c(C(N)=O)c2NC)C[C@@H]1COC [Example 273, 3-{2-[3-(Difluoromethyl)-6-fluoroquinolin-7-yl]ethynyl}-1-[(3S,5R)-5-(methoxymethyl)-1-(prop-2-enoyl)pyrrolidin-3-yl]-5-(methylamino)pyrazole-4-carboxamide]",≤ 100
12,"C=CC(=O)N1C[C@@H](n2nc(C#Cc3cccc4c3cnn4C3CC3)c(C(N)=O)c2NC)C[C@@H]1COC [Example 276, 3-[2-(1-Cyclopropylindazol-4-yl)ethynyl]-1-[(3S,5R)-5-(methoxymethyl)-1-(prop-2-enoyl)pyrrolidin-3-yl]-5-(methylamino)pyrazole-4-carboxamide]",≤ 100
13,"C=CC(=O)N1C[C@@H](n2nc(C#Cc3cc(OC)c4c(C5CC5)cnn4c3)c(C(N)=O)c2NC)C[C@@H]1COC [Example 284, 3-(2-{3-Cyclopropyl-4-methoxypyrazolo[1,5-a]pyridin-6-yl}ethynyl)-1-[(3S,5R)-5-(methoxymethyl)-1-(prop-2-enoyl)pyrrolidin-3-yl]-5-(methylamino)pyrazole-4-carboxamide]",100 to 1000
14,"C=CC(=O)N1C[C@@H](n2nc(C#Cc3cc4nc5n(c4cc3Cl)CCC5)c(C(N)=O)c2NC)C[C@@H]1COC [Example 285, 1-((3S,5R)-1-Acryloyl-5-(methoxymethyl)pyrrolidin-3-yl)-3-((7-chloro-2,3-dihydro-1H-benzo[d]pyrrolo[1,2-a]imidazol-6-yl)ethynyl)-5-(methylamino)-1H-pyrazole-4-carboxamide]",≤ 100

# Second part, the molecule after the results:
row,IC50 [nM],Compound
1,≤ 100,"C=CC(=O)N1C[C@@H](n2nc(C#Cc3cc4nc(C)n(C5CC5)c4cc3F)c(C(N)=O)c2NCCO)C[C@@H]1COC [Example 252, 3-[2-(1-Cyclopropyl-6-fluoro-2-methyl-1,3-benzodiazol-5-yl)ethynyl]-5-[(2-hydroxyethyl)amino]-1-[(3S,5R)-5-(methoxymethyl)-1-(prop-2-enoyl)pyrrolidin-3-yl]pyrazole-4-carboxamide]"
2,≤ 100,"C=CC(=O)N1C[C@@H](n2nc(C#Cc3cc4ncc(C)cc4cc3Cl)c(C(N)=O)c2NC)C[C@@H]1COC [Example 258, 3-[2-(6-Chloro-3-methylquinolin-7-yl)ethynyl]-1-[(3S,5R)-5-(methoxymethyl)-1-(prop-2-enoyl)pyrrolidin-3-yl]-5-(methylamino)pyrazole-4-carboxamide]"
3,≤ 100,"C=CC(=O)N1C[C@@H](n2nc(C#Cc3cc4ncc(C)cc4cc3C)c(C(N)=O)c2NC)C[C@@H]1COC [Example 265, 3-[2-(3,6-Dimethylquinolin-7-yl)ethynyl]-1-[(3S,5R)-5-(methoxymethyl)-1-(prop-2-enoyl)pyrrolidin-3-yl]-5-(methylamino)pyrazole-4-carboxamide]"
4,≤ 100,"C=CC(=O)N1C[C@@H](n2nc(C#Cc3cc4ncc(F)cc4cc3Cl)c(C(N)=O)c2NC)C[C@@H]1COC [Example 267, 3-[2-(6-Chloro-3-fluoroquinolin-7-yl)ethynyl]-1-[(3S,5R)-5-(methoxymethyl)-1-(prop-2-enoyl)pyrrolidin-3-yl]-5-(methylamino)pyrazole-4-carboxamide]"
5,≤ 100,"C=CC(=O)N1C[C@@H](n2nc(C#Cc3cc4nncc(C)c4cc3Cl)c(C(N)=O)c2NC)C[C@@H]1COC [Example 268, 1-((3S,5R)-1-acryloyl-5-(methoxymethyl)pyrrolidin-3-yl)-3-((6-chloro-4-methylcinnolin-7-yl)ethynyl)-5-(methylamino)-1H-pyrazole-4-carboxamide]"
6,≤ 100,"C=CC(=O)N1C[C@@H](n2nc(C#Cc3cc(OC)c4c(C#N)cnn4c3)c(C(N)=O)c2NC)C[C@@H]1COC [Example 270, 1-((3S,5R)-1-acryloyl-5-(methoxymethyl)pyrrolidin-3-yl)-3-((3-cyano-4-methoxypyrazolo[1,5-a]pyridin-6-yl)ethynyl)-5-(methylamino)-1H-pyrazole-4-carboxamide]"
7,≤ 100,"C=CC(=O)N1C[C@@H](n2nc(C#Cc3cccc4c3cnn4C)c(C(N)=O)c2NC)C[C@@H]1COC [Example 275, 1-((3S,5R)-1-Acryloyl-5-(methoxymethyl)pyrrolidin-3-yl)-3-((1-methyl-1H-indazol-4-yl)ethynyl)-5-(methylamino)-1H-pyrazole-4-carboxamide]"
8,≤ 100,"C=CC(=O)N1C[C@@H](n2nc(C#Cc3cccn4cncc34)c(C(N)=O)c2NC)C[C@@H]1COC [Example 277, 3-(2-{Imidazo[1,5-a]pyridin-8-yl}ethynyl)-1-[(3S,5R)-5-(methoxymethyl)-1-(prop-2-enoyl)pyrrolidin-3-yl]-5-(methylamino)pyrazole-4-carboxamide]"
9,≤ 100,"C=CC(=O)N1C[C@@H](n2nc(C#Cc3cccc4cncn34)c(C(N)=O)c2NC)C[C@@H]1COC [Example 278, 3-(2-{Imidazo[1,5-a]pyridin-5-yl}ethynyl)-1-[(3S,5R)-5-(methoxymethyl)-1-(prop-2-enoyl)pyrrolidin-3-yl]-5-(methylamino)pyrazole-4-carboxamide]"
10,≤ 100,"C=CC(=O)N1C[C@@H](n2nc(C#Cc3cc4ncc(C5CC5)n4cc3F)c(C(N)=O)c2NC)C[C@@H]1COC [Example 283, 3-(2-{3-Cyclopropyl-6-fluoroimidazo[1,2-a]pyridin-7-yl}ethynyl)-1-[(3S,5R)-5-(methoxymethyl)-1-(prop-2-enoyl)pyrrolidin-3-yl]-5-(methylamino)pyrazole-4-carboxamide]"
